Results from patent US20260242402A1, “PRODRUGS OF STAT3 INHIBITORS” (Tvardi Operating Company, Inc., priority 2022, published 2026).
Converted amounts (≈) assume the structure as drawn. Structures can show the parent of a compound that is named as a salt. Where two headings read alike, the source gives them in different places. One block for each compound: values may come before it.

Tests used:
[1] = male, cynomolgus monkey, in vivo, po
[2] = male, SD, rat, in vivo, po
physchem [3] = conditions: thermodynamic from solid
physchem [4] = conditions: buffer, pH 7.4
in vitro = conditions: human, plasma
[5] = not given; remark: listed apart in the source
[6] = Solubility of TTI-101 as described in the text; type: physicochemical; conditions: aqueous solutions
in vivo = conditions: rat
[7] = Pharmacokinetics in monkeys (TTI-101 in plasma by LC-MS/MS); conditions: male, cynomolgus monkey, iv, 26 mg/kg
[8] = pH 2, aqueous buffer, Solubility (pH = 2.0)

SMILES: COc1ccc(S(=O)(=O)Nc2cc(-c3c(O)ccc4ccccc34)c(OP(=O)(O)O)c3ccccc23)cc1 [Compound 9, 2-hydroxy-4′-((4-methoxyphenyl)sulfonamido)-[1,2′-binaphthalen]-1′-yl dihydrogen phosphate]
- F % (bioavailability, calculated on dose levels) [1]: 81.3%
- T1/2 [1]: 6.7 ± 1.4 h
- Tmax [1]: 1.7 ± 0.6 h
- AUClast ([1]; 24.3 mg/kg): 75704 ± 14050 ng·h/mL
- F % (bioavailability, calculated on dose levels) [2]: 58.5%
- T1/2 [2]: 2.0 ± 0.4 h
- Tmax [2]: 1.8 ± 1.7 h
- AUClast ([2]; 22.4 mg/kg): 37775 ± 14217 ng·h/mL
- Aqueous Stability (pH = 2.0) (pH 2): Stable
- Aqueous Stability (pH = 3.5) (pH 3.5): Stable
- Aqueous Stability (pH = 7.4) (in words) (pH 7.4): Stable
- solubility (physchem [3]; [8]): 1530 µg/mL
- solubility (physchem [3]; pH 7.4, aqueous buffer, Solubility (pH = 7.4)): 6160 µg/mL

SMILES: CNCCCN(C)C(=O)Oc1c(-c2c(O)ccc3ccccc23)cc(NS(=O)(=O)c2ccc(OC)cc2)c2ccccc12 [Compound 4, 2-hydroxy-4′-((4-methoxyphenyl)sulfonamido)-[1,2′-binaphthalen]-1′-yl methyl(3-(methylamino)propyl)carbamate hydrochloride]
- Aqueous Stability (pH = 2.0) (phosphate buffer pH 2.0, 37° C., up to 1440 minutes): Stable
- Aqueous Stability (pH = 3.5) (phosphate buffer pH 3.5, 37° C., up to 1440 minutes): Stable
- Aqueous Stability (pH = 7.4) (in words) (phosphate buffer pH 7.4, 37° C., up to 1440 minutes): Unstable;
- half-life at 2 µM (physchem [4]): 1 h
- half-life at 2 µM (in vitro): 4.3 min

SMILES: COc1ccc(S(=O)(=O)Nc2cc3c(c4ccccc24)OP(=O)(O)Oc2ccc4ccccc4c2-3)cc1 [Compound 9A, N-((6)-6-hydroxy-6-oxidodinaphtho[1,2-d:1′,2′-f][1,3,2]dioxaphosphepin-15-yl)-4-methoxybenzenesulfonamide]
- F % (bioavailability, calculated on dose levels) [1]: 6.7%
- Tmax [1]: 8.0 ± 0 h
- AUClast ([1]; 53.5 mg/kg): 5203 + 1048 ng*h/mL
- Aqueous Stability (pH = 2.0) (pH 2): Stable
- Aqueous Stability (pH = 3.5) (pH 3.5): Stable
- Aqueous Stability (pH = 7.4) (in words) (pH 7.4): Stable
- solubility (physchem [3]; [8]): 56 µg/mL (≈ 105 µM)
- Solubility (pH = 7.4) [5]: 37, 12 ug/mL

- Solubility (in words) [6]: insoluble in aqueous solutions
- AUC(0-t) (in vivo; male, SD, iv, 21.5 mg/kg): 72400 ± 15100 ng·h/mL
- half-life (in vivo; male, SD, iv, 21.5 mg/kg): 2.8 ± 0.6 h
- bioavailability (in vivo; po): 40.4%
- AUC(0-t) [7]: 116000 ± 7170 ng·h/mL
- half-life [7]: 2.4 ± 0.1 h
SMILES: COc1ccc(S(=O)(=O)Nc2cc(-c3c(O)ccc4ccccc34)c(O)c3ccccc23)cc1 [TTI-101, N-(1′,2-dihydroxy-[1,2′-binaphthalen]-4′-yl)-4-methoxybenzenesulfonamide]
